Usually IC50 stands for the midpoint of a concentration-inhibition curve. A lower IC50 goes with higher potency.

The target in this test is (VIBVN)NAT (arylamine N-acetyltransferase). Kind of test: DTNB assay of AcCoA-dependent acetylation, absorbance at […] nm. The format is biochemical, Vibrio vulnificus.

SMILES strings stand for the structures.

The molecule `CCCS(=O)(=O)c1c(S(=O)(=O)CCC)c2ccccn2c1C(=O)N/N=C/c1cc(OC)ccc1O` [AG-205-36710025] gave an IC50 of 33.3 µM.
